The source of these data is EP2578210A1, “Rottlerin for the treatment of pulmonary hypertension and related diseases and disorders” (ATB Innovation Ltd., priority 2011, dated 2013).

For one test, the target named is T1, Kv7.4 (Homo sapiens, UniProt P56696).
T1 construct: expressed in transfected cells; host or cells: Xenopus laevis oocytes
As to the kind of experiment: Two-electrode current recording of human KCNQ (Kv7) channels heterologously expressed in Xenopus laevis oocytes. The test is classed as cell-based. The source says:
(§1) Rottlerin was applied at different concentrations to the expressed Kv7 channels.

Another test concerns the target T2, Kv7.5 (Homo sapiens, UniProt Q9NR82).
T2 construct: expressed in transfected cells; host or cells: Xenopus laevis oocytes
The description is as above. The following applies: different concentrations. The format is cell-based.
Excerpt: as §1

Another test deals with T3, Kv7.2 (Homo sapiens, UniProt O43526).
T3 construct: expressed in transfected cells; host or cells: Xenopus laevis oocytes
T3 sequence (O43526 whole entry): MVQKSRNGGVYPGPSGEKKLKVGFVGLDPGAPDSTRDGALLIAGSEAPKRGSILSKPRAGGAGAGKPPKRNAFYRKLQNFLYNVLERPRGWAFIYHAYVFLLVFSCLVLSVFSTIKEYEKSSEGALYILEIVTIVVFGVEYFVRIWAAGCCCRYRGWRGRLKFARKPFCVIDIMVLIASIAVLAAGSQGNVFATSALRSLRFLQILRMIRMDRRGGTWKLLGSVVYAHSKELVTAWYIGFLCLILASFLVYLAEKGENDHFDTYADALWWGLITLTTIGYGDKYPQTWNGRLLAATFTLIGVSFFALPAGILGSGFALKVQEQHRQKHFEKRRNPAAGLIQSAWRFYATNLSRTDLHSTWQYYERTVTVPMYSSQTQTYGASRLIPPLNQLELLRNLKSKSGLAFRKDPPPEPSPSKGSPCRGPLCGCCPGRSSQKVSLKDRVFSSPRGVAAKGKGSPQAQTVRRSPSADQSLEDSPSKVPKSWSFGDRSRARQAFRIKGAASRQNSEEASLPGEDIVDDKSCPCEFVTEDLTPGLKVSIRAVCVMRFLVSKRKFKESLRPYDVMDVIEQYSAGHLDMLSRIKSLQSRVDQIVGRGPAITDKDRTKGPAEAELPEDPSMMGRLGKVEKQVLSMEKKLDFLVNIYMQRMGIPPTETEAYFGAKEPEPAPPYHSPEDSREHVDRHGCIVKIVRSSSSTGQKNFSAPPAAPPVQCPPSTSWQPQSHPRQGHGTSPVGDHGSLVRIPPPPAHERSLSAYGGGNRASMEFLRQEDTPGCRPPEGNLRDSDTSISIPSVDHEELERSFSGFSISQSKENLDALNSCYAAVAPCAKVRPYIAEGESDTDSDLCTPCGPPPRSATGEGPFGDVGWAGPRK
The test is described as above. The format is cell-based. The following applies: different concentrations.
Excerpt: as §1

The target in a further test is T4, Kv7.3 (Homo sapiens, UniProt O43525).
T4 construct: expressed in transfected cells; host or cells: Xenopus laevis oocytes
T4 sequence (O43525 whole entry): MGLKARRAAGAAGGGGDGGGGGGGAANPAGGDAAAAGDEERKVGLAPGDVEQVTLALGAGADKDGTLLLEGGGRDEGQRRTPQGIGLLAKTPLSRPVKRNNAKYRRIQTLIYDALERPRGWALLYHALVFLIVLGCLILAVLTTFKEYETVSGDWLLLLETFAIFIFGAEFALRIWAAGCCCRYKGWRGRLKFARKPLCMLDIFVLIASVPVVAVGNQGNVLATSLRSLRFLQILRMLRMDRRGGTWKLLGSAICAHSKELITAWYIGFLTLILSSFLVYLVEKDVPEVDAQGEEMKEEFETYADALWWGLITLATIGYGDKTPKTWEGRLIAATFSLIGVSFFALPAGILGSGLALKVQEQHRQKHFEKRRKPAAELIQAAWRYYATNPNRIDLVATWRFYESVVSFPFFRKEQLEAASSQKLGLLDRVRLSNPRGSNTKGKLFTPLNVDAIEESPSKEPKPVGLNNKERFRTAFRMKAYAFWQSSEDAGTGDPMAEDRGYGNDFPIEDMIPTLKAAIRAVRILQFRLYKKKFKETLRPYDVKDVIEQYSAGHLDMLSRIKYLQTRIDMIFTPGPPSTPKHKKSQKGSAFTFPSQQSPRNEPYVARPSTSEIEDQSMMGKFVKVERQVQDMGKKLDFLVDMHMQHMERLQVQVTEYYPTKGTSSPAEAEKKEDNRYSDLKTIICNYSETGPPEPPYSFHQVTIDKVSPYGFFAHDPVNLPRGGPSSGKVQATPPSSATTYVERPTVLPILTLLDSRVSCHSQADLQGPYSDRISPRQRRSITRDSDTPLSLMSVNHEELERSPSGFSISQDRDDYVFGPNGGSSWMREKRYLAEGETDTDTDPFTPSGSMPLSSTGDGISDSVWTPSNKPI
The description is as above. The format is cell-based. The following applies: different concentrations.
Excerpt: as §1

For the next test, the target named is T5, Kv7.1 (Homo sapiens, UniProt P51787).
T5 construct: expressed in transfected cells; host or cells: Xenopus laevis oocytes
T5 sequence (P51787 whole entry): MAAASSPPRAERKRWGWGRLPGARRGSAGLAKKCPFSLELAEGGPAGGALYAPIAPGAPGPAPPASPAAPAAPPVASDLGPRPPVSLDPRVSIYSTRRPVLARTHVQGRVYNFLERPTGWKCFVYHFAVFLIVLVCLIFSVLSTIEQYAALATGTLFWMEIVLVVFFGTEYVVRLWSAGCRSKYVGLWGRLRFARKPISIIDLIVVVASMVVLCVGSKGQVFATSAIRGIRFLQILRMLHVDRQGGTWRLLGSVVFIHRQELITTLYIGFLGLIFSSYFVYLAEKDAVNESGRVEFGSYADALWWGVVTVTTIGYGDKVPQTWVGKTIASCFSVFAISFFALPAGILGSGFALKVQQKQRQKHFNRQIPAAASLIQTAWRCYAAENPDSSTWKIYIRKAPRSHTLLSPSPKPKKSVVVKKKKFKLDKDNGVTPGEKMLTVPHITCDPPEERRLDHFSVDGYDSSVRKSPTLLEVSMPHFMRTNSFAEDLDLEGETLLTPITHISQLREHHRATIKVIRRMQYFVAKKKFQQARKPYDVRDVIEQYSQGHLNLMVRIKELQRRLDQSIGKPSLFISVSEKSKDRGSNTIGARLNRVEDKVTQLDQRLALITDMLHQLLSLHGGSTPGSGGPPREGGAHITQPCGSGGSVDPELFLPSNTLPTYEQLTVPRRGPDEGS
The description is as above. The format is cell-based.
Excerpt: as §1

The next test deals with T6, Kv7.1/KCNE1 (Homo sapiens, UniProt P51787).
T6 construct: expressed in transfected cells; host or cells: Xenopus laevis oocytes
T6 sequence (P51787 whole entry): as the sequence (P51787 whole entry) above
The description is as above. The format is cell-based.
Excerpt: as §1

A further test concerns other PKC isozymes. The following applies: in vitro studies; cited from earlier work.
Another test addresses PKCδ (Homo sapiens, UniProt Q05655). Conditions: in vitro studies; cited from earlier work.

T1 sequence (P56696 whole entry): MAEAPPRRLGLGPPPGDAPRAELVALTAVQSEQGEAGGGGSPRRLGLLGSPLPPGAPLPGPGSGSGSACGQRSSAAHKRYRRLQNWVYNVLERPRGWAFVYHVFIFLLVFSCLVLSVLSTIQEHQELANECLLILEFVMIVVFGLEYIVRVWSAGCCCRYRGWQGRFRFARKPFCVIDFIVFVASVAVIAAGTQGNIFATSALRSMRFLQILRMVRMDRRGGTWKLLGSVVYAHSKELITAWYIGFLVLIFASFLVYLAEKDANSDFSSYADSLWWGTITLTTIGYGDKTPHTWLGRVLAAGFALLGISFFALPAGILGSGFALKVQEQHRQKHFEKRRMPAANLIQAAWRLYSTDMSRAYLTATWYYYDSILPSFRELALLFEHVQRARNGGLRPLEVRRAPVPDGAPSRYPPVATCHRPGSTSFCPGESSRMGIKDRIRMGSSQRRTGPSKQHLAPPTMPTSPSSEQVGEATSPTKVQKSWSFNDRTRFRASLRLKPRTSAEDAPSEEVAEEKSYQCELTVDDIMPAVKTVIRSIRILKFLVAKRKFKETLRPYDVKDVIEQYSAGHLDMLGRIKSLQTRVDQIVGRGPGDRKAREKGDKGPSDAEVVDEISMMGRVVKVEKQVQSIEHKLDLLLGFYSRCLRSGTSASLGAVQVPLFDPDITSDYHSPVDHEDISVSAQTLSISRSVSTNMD
PKCδ, sequence (Q05655 whole entry): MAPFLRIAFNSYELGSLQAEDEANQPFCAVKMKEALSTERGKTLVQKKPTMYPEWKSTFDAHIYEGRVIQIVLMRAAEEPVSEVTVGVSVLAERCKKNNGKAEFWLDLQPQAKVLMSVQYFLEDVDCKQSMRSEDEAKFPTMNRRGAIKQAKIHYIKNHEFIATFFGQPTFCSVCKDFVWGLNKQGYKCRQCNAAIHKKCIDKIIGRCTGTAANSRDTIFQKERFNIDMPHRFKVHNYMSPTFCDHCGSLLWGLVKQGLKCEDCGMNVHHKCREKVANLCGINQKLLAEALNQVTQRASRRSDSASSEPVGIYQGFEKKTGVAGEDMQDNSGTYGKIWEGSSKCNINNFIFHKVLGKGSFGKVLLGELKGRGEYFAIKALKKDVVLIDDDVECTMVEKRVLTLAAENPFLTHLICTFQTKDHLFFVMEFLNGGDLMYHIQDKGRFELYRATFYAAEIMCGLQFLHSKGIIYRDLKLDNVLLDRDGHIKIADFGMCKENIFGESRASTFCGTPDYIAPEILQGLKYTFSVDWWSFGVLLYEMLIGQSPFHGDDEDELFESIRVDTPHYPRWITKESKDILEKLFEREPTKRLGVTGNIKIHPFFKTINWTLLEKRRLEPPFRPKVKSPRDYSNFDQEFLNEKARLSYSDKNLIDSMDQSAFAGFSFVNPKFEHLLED

Regarding `CC(=O)c1c(O)c(C)c(O)c(Cc2c(O)c3c(c(C(=O)/C=C/c4ccccc4)c2O)OC(C)(C)C=C3)c1O` [rottlerin, 5,7-dihydroxy-2,2-dimethyl-6-(2,4,6-trihydroxy-3-methyl-5-acetylbenzyl)-8-cinnamoyl-1,2-chromene], the EC50 is 0.148 µM at Kv7.4, 1.48 µM at Kv7.1 and 4.9 µM on Kv7.1/KCNE1. Moreover, the effect on currents result is “significant robust activation” on Kv7.4 (Kv7.4, different concentrations); “no significant effect” on Kv7.5; “no significant effect” at Kv7.2; “no significant effect” on Kv7.3; “significant robust activation” on Kv7.1 (Kv7.1, different concentrations); “significant robust activation” on Kv7.1/KCNE1 (Kv7.1/KCNE1, different concentrations). At Kv7.4 (more potent on Kv7.4 than on cardiac and epithelial Kv7.1/KCNE1), the “potency on Kv7.4 relative to Kv7.1/KCNE1” value is given as “about 30 fold”. The IC50 in the test with other PKC isozymes is 30 to 100 µM; on PKCδ, 3 to 6 µM.

Broadly, the EC50 is the concentration needed to bring the measured effect to its halfway point. As usually defined, the IC50 is the point on the concentration scale where inhibition reaches its midpoint.
